Test results from patent publication US7632783B2 (priority 2004, dated 2009).

How the values were obtained:
[1] = tested on: rice blast (Pyricularia oryzae); type: in vivo; details: potted rice (variety Karakaze), spraying liquid 300 ppm after spore inoculation, observed 7 days after inoculation, levels 0 to 3
[2] = tested on: gray mold (Botrytis cinerea); experiment: Tomato gray mold control test (preventive effects); type: in vivo; details: potted tomato (giant Fukuju variety), spraying liquid 300 ppm before spore inoculation, investigated 2 days after inoculation, levels 0 to 3
Method: Bulk drug was dissolved in a mixed solution of dimethylsulfoxide and methanol (volume ratio: 7/3), and spraying liquids containing 300 ppm of compounds of the present invention were uniformly sprayed onto potted test plants (tomato: giant Fukuju variety) in the second to third leaf stage. […], a suspension of pathogen spores were inoculated by spraying onto the pots in an inoculation room at a room temperature of 20 to 23° C. to promote the onset of disease. The degree of disease onset was investigated 2 days after inoculation. The test was carried out in duplicate.
Furthermore, the degree of disease onset was evaluated to one of four levels from 0 to 3 according to the criteria below by macroscopically observing the degree of disease onset of the test plants.
1: Degree of disease onset less than 40% of the untreated area
2: Degree of disease onset 40% to less than 80% of the untreated area
3: Degree of disease onset 80% or more

“3-(5-fluoro-3,3-dimethyl-3,4-dihydroisoquinolin-1-yl)quinoline salicylate [Example 108]” was tested, and the “degree of disease onset” value [1] was 0 and the “degree of disease onset” value [2] was 0.

For `CC1(C)Cc2c(F)cccc2C(c2cnc3ccccc3c2)=N1` [Example 2, 3-(5-fluoro-3,3-dimethyl-3,4-dihydroisoquinolin-1-yl)quinoline], the “degree of disease onset” value [1] was 0 and the “degree of disease onset” value [2] was 0.

With `Cc1cccc2cc(C3=NC(C)(C)Cc4c(F)cccc43)cnc12` [Example 14, 3-(5-fluoro-3,3-dimethyl-3,4-dihydroisoquinolin-1-yl)-8-methylquinoline] the “degree of disease onset” value [1] was 0 and the “degree of disease onset” value [2] was 0.

In the case of `CC1(C)Cc2c(Cl)cccc2C(c2cnc3ccccc3c2)=N1` [Example 18, 3-(5-chloro-3,3-dimethyl-3,4-dihydroisoquinolin-1-yl)quinoline], the “degree of disease onset” value [1] is reported as 0 and the “degree of disease onset” value [2] is reported as 0.

In the case of `CC1(C)Cc2ccc(Cl)cc2C(c2cnc3ccccc3c2)=N1` [Example 21, 3-(7-chloro-3,3-dimethyl-3,4-dihydroisoquinolin-1-yl)quinoline], the “degree of disease onset” value [1] is reported as 0 and the “degree of disease onset” value [2] is reported as 0.

In the case of `CC1(C)Cc2c(Br)cccc2C(c2cnc3ccccc3c2)=N1` [Example 22, 3-(5-bromo-3,3-dimethyl-3,4-dihydroisoquinolin-1-yl)quinoline], the “degree of disease onset” value [1] is reported as 0 and the “degree of disease onset” value [2] is reported as 0.

For `C#Cc1cccc2c1CC(C)(C)N=C2c1cnc2ccccc2c1` [Example 30, 3-(5-ethynyl-3,3-dimethyl-3,4-dihydroisoquinolin-1-yl)quinoline], the “degree of disease onset” value [1] was 0 and the “degree of disease onset” value [2] was 0.

`CC1(C)Cc2c(C#N)cccc2C(c2cnc3ccccc3c2)=N1` [Example 51, 3-(5-cyano-3,3-dimethyl-3,4-dihydroisoquinolin-1-yl)quinoline] was tested, and the “degree of disease onset” value [1] was 0 and the “degree of disease onset” value [2] was 0.

For `CC1(C)Cc2c(ccc(F)c2F)C(c2cnc3ccccc3c2)=N1` [Example 52, 3-(5,6-difluoro-3,3-dimethyl-3,4-dihydroisoquinolin-1-yl)quinoline], the “degree of disease onset” value [1] was 0 and the “degree of disease onset” value [2] was 0.

`CCC1(C)Cc2c(F)cccc2C(c2cnc3ccccc3c2)=N1` (stereo not shown) [Example 56, 3-(3-ethyl-5-fluoro-3-methyl-3,4-dihydroisoquinolin-1-yl)quinoline] was tested, and the “degree of disease onset” value [1] was 0 and the “degree of disease onset” value [2] was 0.

For `CCCC1(C)Cc2c(F)cccc2C(c2cnc3ccccc3c2)=N1` (stereo not shown) [Example 58, 3-(5-fluoro-3-methyl-3-propyl-3,4-dihydroisoquinolin-1-yl)quinoline], the “degree of disease onset” value [1] was 0 and the “degree of disease onset” value [2] was 0.

In the case of `CC1(CCl)Cc2ccccc2C(c2cnc3ccccc3c2)=N1` (stereo not shown) [Example 66, 3-(3-chloromethyl-3-methyl-3,4-dihydroisoquinolin-1-yl)quinoline], the “degree of disease onset” value [1] is reported as 0 and the “degree of disease onset” value [2] is reported as 0.

With `CC1(C(F)(F)F)Cc2ccccc2C(c2cnc3ccccc3c2)=N1` (stereo not shown) [Example 68, 3-(3-trifluoromethyl-3-methyl-3,4-dihydroisoquinolin-1-yl)quinoline] the “degree of disease onset” value [1] was 0 and the “degree of disease onset” value [2] was 0.

With `CC1(CC(F)(F)F)Cc2ccccc2C(c2cnc3ccccc3c2)=N1` (stereo not shown) [Example 69, 3-(3-trifluoroethyl-3-methyl-3,4-dihydroisoquinolin-1-yl)quinoline] the “degree of disease onset” value [1] was 0 and the “degree of disease onset” value [2] was 0.

`CC1(c2ccccc2)Cc2ccccc2C(c2cnc3ccccc3c2)=N1` (stereo not shown) [Example 71, 3-(3-methyl-3-phenyl-3,4-dihydroisoquinolin-1-yl)quinoline] was tested, and the “degree of disease onset” value [1] was 0 and the “degree of disease onset” value [2] was 0.

`CC1(c2ccc(F)cc2)Cc2ccccc2C(c2cnc3ccccc3c2)=N1` (stereo not shown) [Example 72, 3-[3-(4-fluorophenyl)-3-methyl-3,4-dihydroisoquinolin-1-yl]quinoline] was tested, and the “degree of disease onset” value [1] was 0 and the “degree of disease onset” value [2] was 0.

In the case of `CC1(c2ccc(Cl)cc2)Cc2ccccc2C(c2cnc3ccccc3c2)=N1` (stereo not shown) [Example 73, 3-[3-(4-chlorophenyl)-3-methyl-3,4-dihydroisoquinolin-1-yl]quinoline], the “degree of disease onset” value [1] is reported as 0 and the “degree of disease onset” value [2] is reported as 0.

In the case of `Fc1ccc(C2(CCl)Cc3ccccc3C(c3cnc4ccccc4c3)=N2)cc1` (stereo not shown) [Example 75, 3-[3-chloromethyl-3-(4-fluorophenyl)-3,4-dihydroisoquinolin-1-yl]quinoline], the “degree of disease onset” value [1] is reported as 0 and the “degree of disease onset” value [2] is reported as 0.

For `CC1(Cc2ccccc2)Cc2ccccc2C(c2cnc3ccccc3c2)=N1` (stereo not shown) [Example 79, 3-(3-Benzyl-3-methyl-3,4-dihydroisoquinolin-1-yl)quinoline], the “degree of disease onset” value [1] was 0 and the “degree of disease onset” value [2] was 0.

With `CC1(C)Cc2c(F)cccc2C(c2cnc3ccccc3c2)=N1.Cl` [Example 103, 3-(5-fluoro-3,3-dimethyl-3,4-dihydroisoquinolin-1-yl)quinoline hydrochloride] the “degree of disease onset” value [1] was 0 and the “degree of disease onset” value [2] was 0.

`CC1(C)Cc2c(F)cccc2C(c2cnc3ccccc3c2)=N1.CS(=O)(=O)O` [Example 107, 3-(5-fluoro-3,3-dimethyl-3,4-dihydroisoquinolin-1-yl)quinoline methanesulfonate] was tested, and the “degree of disease onset” value [1] was 0 and the “degree of disease onset” value [2] was 0.

`CC1(C)Cc2c(F)cccc2C(c2cnc3ccccc3c2)=N1.O=C(O)/C=C/C(=O)O` [Example 109, 3-(5-fluoro-3,3-dimethyl-3,4-dihydroisoquinolin-1-yl)quinoline fumarate] was tested, and the “degree of disease onset” value [1] was 0 and the “degree of disease onset” value [2] was 0.

`CC1(C)N=C(c2cnc3ccccc3c2)c2cccc(F)c2C1(C)C` [Example 114, 3-(5-fluoro-3,3,4,4-tetramethyl-3,4-dihydroisoquinolin-1-yl)quinoline] was tested, and the “degree of disease onset” value [1] was 0 and the “degree of disease onset” value [2] was 0.

`CC1(C)N=C(c2cnc3ccccc3c2)c2ccc(Cl)cc2C1(C)C` [Example 154, 3-(6-chloro-3,3,4,4-tetramethyl-3,4-dihydroisoquinolin-1-yl)quinoline] was tested, and the “degree of disease onset” value [2] was 0.

In the case of `CC1(C)N=C(c2cnc3ccccc3c2)c2cccc(F)c2C1(C)C.Cl` [Example 156, 3-(5-fluoro-3,3,4,4-tetramethyl-3,4-dihydroisoquinolin-1-yl)quinoline hydrochloride], the “degree of disease onset” value [1] is reported as 0 and the “degree of disease onset” value [2] is reported as 0.

For `CC1(C)N=C(c2cnc3ccccc3c2)c2cccc(F)c2C1(C)C.O=[N+]([O-])O` [Example 158, 3-(5-fluoro-3,3,4,4-tetramethyl-3,4-dihydroisoquinolin-1-yl)quinoline nitrate], the “degree of disease onset” value [1] was 0 and the “degree of disease onset” value [2] was 0.

In the case of `CC1(C)N=C(c2cnc3ccccc3c2)c2cccc(F)c2C1(C)C.CS(=O)(=O)O` [Example 159, 3-(5-fluoro-3,3,4,4-tetramethyl-3,4-dihydroisoquinolin-1-yl)quinoline methanesulfonate], the “degree of disease onset” value [2] is reported as 0.

`CC1(C)N=C(c2cnc3ccc(F)cc3c2)c2cccc(F)c2C1(C)C` [Example 163, 3-(5-fluoro-3,3,4,4-tetramethyl-3,4-dihydroisoquinolin-1-yl)-6-fluoroquinoline] was tested, and the “degree of disease onset” value [1] was 0 and the “degree of disease onset” value [2] was 0.

`CC1(C)N=C(c2cnc3c(F)cccc3c2)c2cccc(F)c2C1(C)C` [Example 164, 3-(5-fluoro-3,3,4,4-tetramethyl-3,4-dihydroisoquinolin-1-yl)-8-fluoroquinoline] was tested, and the “degree of disease onset” value [1] was 0 and the “degree of disease onset” value [2] was 0.

With `Cc1cccc2cc(C3=NC(C)(C)C(C)(C)c4c(F)cccc43)cnc12` [Example 165, 3-(5-fluoro-3,3,4,4-tetramethyl-3,4-dihydroisoquinolin-1-yl)-8-methylquinoline] the “degree of disease onset” value [1] was 0 and the “degree of disease onset” value [2] was 0.

`CC1(C)N=C(c2cnc3ccccc3c2)c2cccc(F)c2C1F` (stereo not shown) [Example 174, 3-(4,5-difluoro-3,3-dimethyl-3,4-dihydroisoquinolin-1-yl)quinoline] was tested, and the “degree of disease onset” value [1] was 0 and the “degree of disease onset” value [2] was 0.

With `C=C1c2c(F)cccc2C(c2cnc3ccccc3c2)=NC1(C)C` [Example 175, 3-(5-fluoro-3,3-dimethyl-4-methylene-3,4-dihydroisoquinolin-1-yl)quinoline] the “degree of disease onset” value [2] was 0.

With `CC1(C)N=C(c2cnc3ccccc3c2)c2ccccc2C1(F)F` [Example 177, 3-(4,4-difluoro-3,3-dimethyl-3,4-dihydroisoquinolin-1-yl)quinoline] the “degree of disease onset” value [1] was 0 and the “degree of disease onset” value [2] was 0.

For `CC1(C)N=C(c2cnc3ccccc3c2)c2cccc(F)c2C1(F)F` [Example 178, 3-(4,4,5-trifluoro-3,3-dimethyl-3,4-dihydroisoquinolin-1-yl)quinoline], the “degree of disease onset” value [1] was 0 and the “degree of disease onset” value [2] was 0.

`CN1C(c2cnc3ccccc3c2)c2cccc(F)c2C(C)(C)C1(C)C` (stereo not shown) [Example 191, 3-(5-fluoro-2,3,3,4,4-pentamethyl-1,2,3,4-tetrahydroisoquinoline-1-yl)quinoline] was tested, and the “degree of disease onset” value [2] was 0.

With `CC1(C)c2c(F)cccc2C2(c3cnc4ccccc4c3)ON2C1(C)C` (stereo not shown) [Example 193, 5-fluoro-3,3,4,4-tetramethyl-8b-quinolin-3-yl-4,8b-dihydro-3H-oxazileno[3,2-a]isoquinoline] the “degree of disease onset” value [1] was 0 and the “degree of disease onset” value [2] was 0.

With `CC1(C)c2ccccc2C2(c3cnc4ccccc4c3)ON2C1(C)C` (stereo not shown) [Example 196, 3,3,4,4-tetramethyl-8b-quinolin-3-yl-4,8b-dihydro-3H-oxazileno[3,2-a]isoquinoline] the “degree of disease onset” value [1] was 0 and the “degree of disease onset” value [2] was 0.
